Measurements: ChEMBL document CHEMBL5154747, “Discovery of new carbonic anhydrase IX inhibitors as anticancer agents by toning the hydrophobic and hydrophilic rims of the active site to encounter the dual-tail approach” (Eur J Med Chem, 2022)

Tests used:
SNB-75 = test: Anticancer activity against human SNB-75 cells assessed as cell growth inhibition at 10 uM incubated for 48 hrs by SRB assay relative to control; type: functional; conditions: read-out: GI
MDA-MB-231 = test: Anticancer activity against human MDA-MB-231 cells assessed as cell growth inhibition at 10 uM incubated for 48 hrs by SRB assay relative to control; type: functional; conditions: read-out: GI
HT-29 = test: Anticancer activity against human HT-29 cells assessed as cell growth inhibition at 10 uM incubated for 48 hrs by SRB assay relative to control; type: functional; conditions: read-out: GI
OVCAR-8 = test: Anticancer activity against human OVCAR-8 cells assessed as cell growth inhibition at 10 uM incubated for 48 hrs by SRB assay relative to control; type: functional; conditions: read-out: GI
A549 = test: Anticancer activity against human A549 cells assessed as cell growth inhibition at 10 uM incubated for 48 hrs by SRB assay relative to control; type: functional; conditions: read-out: GI
COLO 205 = test: Anticancer activity against human COLO 205 cells assessed as cell growth inhibition at 10 uM incubated for 48 hrs by SRB assay relative to control; type: functional; conditions: read-out: GI
RXF 393 = test: Anticancer activity against human RXF 393 cells assessed as cell growth inhibition at 10 uM incubated for 48 hrs by SRB assay relative to control; type: functional; conditions: read-out: GI
RPMI-8226 = test: Anticancer activity against human RPMI-8226 cells assessed as cell growth inhibition at 10 uM incubated for 48 hrs by SRB assay relative to control; type: functional; conditions: read-out: GI
MDA-MB-468 = test: Anticancer activity against human MDA-MB-468 cells assessed as cell growth inhibition at 10 uM incubated for 48 hrs by SRB assay relative to control; type: functional; conditions: read-out: GI
TK-10 = test: Anticancer activity against human TK-10 cells assessed as cell growth inhibition at 10 uM incubated for 48 hrs by SRB assay relative to control; type: functional; conditions: read-out: GI
NCI-H460 = test: Anticancer activity against human NCI-H460 cells assessed as cell growth inhibition at 10 uM incubated for 48 hrs by SRB assay relative to control; type: functional; conditions: read-out: GI
PC-3 = test: Anticancer activity against human PC-3 cells assessed as cell growth inhibition at 10 uM incubated for 48 hrs by SRB assay relative to control; type: functional; conditions: read-out: GI
Hs-578T = test: Anticancer activity against human Hs-578T cells assessed as cell growth inhibition at 10 uM incubated for 48 hrs by SRB assay relative to control; type: functional; conditions: read-out: GI
786-0 = test: Anticancer activity against human 786-0 cells assessed as cell growth inhibition at 10 uM incubated for 48 hrs by SRB assay relative to control; type: functional; conditions: read-out: GI
EKVX = test: Anticancer activity against human EKVX cells assessed as cell growth inhibition at 10 uM incubated for 48 hrs by SRB assay relative to control; type: functional; conditions: read-out: GI
SF-539 = test: Anticancer activity against human SF-539 cells assessed as cell growth inhibition at 10 uM incubated for 48 hrs by SRB assay relative to control; type: functional; conditions: read-out: GI
SK-MEL-5 = test: Anticancer activity against human SK-MEL-5 cells assessed as cell growth inhibition at 10 uM incubated for 48 hrs by SRB assay relative to control; type: functional; conditions: read-out: GI
OVCAR-4 = test: Anticancer activity against human OVCAR-4 cells assessed as cell growth inhibition at 10 uM incubated for 48 hrs by SRB assay relative to control; type: functional; conditions: read-out: GI
NCI-H522 = test: Anticancer activity against human NCI-H522 cells assessed as cell growth inhibition at 10 uM incubated for 48 hrs by SRB assay relative to control; type: functional; conditions: read-out: GI
MCF7 = test: Anticancer activity against human MCF7 cells assessed as cell growth inhibition at 10 uM incubated for 48 hrs by SRB assay relative to control; type: functional; conditions: read-out: GI
K562 = test: Anticancer activity against human K562 cells assessed as cell growth inhibition at 10 uM incubated for 48 hrs by SRB assay relative to control; type: functional; conditions: read-out: GI
OVCAR-3 = test: Anticancer activity against human OVCAR-3 cells assessed as cell growth inhibition at 10 uM incubated for 48 hrs by SRB assay relative to control; type: functional; conditions: read-out: GI
SF-268 = test: Anticancer activity against human SF-268 cells assessed as cell growth inhibition at 10 uM incubated for 48 hrs by SRB assay relative to control; type: functional; conditions: read-out: GI
SNB-19 = test: Anticancer activity against human SNB-19 cells assessed as cell growth inhibition at 10 uM incubated for 48 hrs by SRB assay relative to control; type: functional; conditions: read-out: GI
KM12 = test: Anticancer activity against human KM12 cells assessed as cell growth inhibition at 10 uM incubated for 48 hrs by SRB assay relative to control; type: functional; conditions: read-out: GI
HOP-92 = test: Anticancer activity against human HOP-92 cells assessed as cell growth inhibition at 10 uM incubated for 48 hrs by SRB assay relative to control; type: functional; conditions: read-out: GI
Carbonic anhydrase 9 = Carbonic anhydrase 9 (Homo sapiens, UniProt Q16790); test: Inhibition of recombinant human CA 9 preincubated for 15 mins by phenol red dye based stopped flow CO2 hydration assay
NCI-H23 = test: Anticancer activity against human NCI-H23 cells assessed as cell growth inhibition at 10 uM incubated for 48 hrs by SRB assay relative to control; type: functional; conditions: read-out: GI
HCT-15 = test: Anticancer activity against human HCT-15 cells assessed as cell growth inhibition at 10 uM incubated for 48 hrs by SRB assay relative to control; type: functional; conditions: read-out: GI
HOP-62 = test: Anticancer activity against human HOP-62 cells assessed as cell growth inhibition at 10 uM incubated for 48 hrs by SRB assay relative to control; type: functional; conditions: read-out: GI
OVCAR-5 = test: Anticancer activity against human OVCAR-5 cells assessed as cell growth inhibition at 10 uM incubated for 48 hrs by SRB assay relative to control; type: functional; conditions: read-out: GI
U-251 = test: Anticancer activity against human U-251 cells assessed as cell growth inhibition at 10 uM incubated for 48 hrs by SRB assay relative to control; type: functional; conditions: read-out: GI
T47D = test: Anticancer activity against human T47D cells assessed as cell growth inhibition at 10 uM incubated for 48 hrs by SRB assay relative to control; type: functional; conditions: read-out: GI
SK-MEL-2 = test: Anticancer activity against human SK-MEL-2 cells assessed as cell growth inhibition at 10 uM incubated for 48 hrs by SRB assay relative to control; type: functional; conditions: read-out: GI
LOX IMVI = test: Anticancer activity against human LOX IMVI cells assessed as cell growth inhibition at 10 uM incubated for 48 hrs by SRB assay relative to control; type: functional; conditions: read-out: GI
SN12C = test: Anticancer activity against human SN12C cells assessed as cell growth inhibition at 10 uM incubated for 48 hrs by SRB assay relative to control; type: functional; conditions: read-out: GI
A498 = test: Anticancer activity against human A498 cells assessed as cell growth inhibition at 10 uM incubated for 48 hrs by SRB assay relative to control; type: functional; conditions: read-out: GI
UO-31 = test: Anticancer activity against human UO-31 cells assessed as cell growth inhibition at 10 uM incubated for 48 hrs by SRB assay relative to control; type: functional; conditions: read-out: GI
Malme-3M = test: Anticancer activity against human Malme-3M cells assessed as cell growth inhibition at 10 uM incubated for 48 hrs by SRB assay relative to control; type: functional; conditions: read-out: GI
MOLT-4 = test: Anticancer activity against human MOLT-4 cells assessed as cell growth inhibition at 10 uM incubated for 48 hrs by SRB assay relative to control; type: functional; conditions: read-out: GI

SMILES	inhibition of growth at 10 µM (SNB-75)	inhibition of growth at 10 µM (MDA-MB-231)	inhibition of growth at 10 µM (HT-29)	inhibition of growth at 10 µM (OVCAR-8)	inhibition of growth at 10 µM (A549)	inhibition of growth at 10 µM (COLO 205)	inhibition of growth at 10 µM (RXF 393)	inhibition of growth at 10 µM (RPMI-8226)	inhibition of growth at 10 µM (MDA-MB-468)	inhibition of growth at 10 µM (TK-10)	inhibition of growth at 10 µM (NCI-H460)	inhibition of growth at 10 µM (PC-3)	inhibition of growth at 10 µM (Hs-578T)	inhibition of growth at 10 µM (786-0)	inhibition of growth at 10 µM (EKVX)	inhibition of growth at 10 µM (SF-539)	inhibition of growth at 10 µM (SK-MEL-5)	inhibition of growth at 10 µM (OVCAR-4)	inhibition of growth at 10 µM (NCI-H522)	inhibition of growth at 10 µM (MCF7)	further results
NS(=O)(=O)c1ccc(Nc2nc(N/N=C/c3ccc([N+](=O)[O-])cc3)nc(Nc3ccccc3)n2)cc1	54%	54%	75%	66%	< 10%	76%	105%	56%	98%	< 10%	98%	49%	46%	91%	16%	136%	67%	44%	51%	90%	inhibition of growth at 10 µM (K562): 79%; inhibition of growth at 10 µM (OVCAR-3): 53%; inhibition of growth at 10 µM (SF-268): 73%; inhibition of growth at 10 µM (SNB-19): 79%; inhibition of growth at 10 µM (KM12): 62%; inhibition of growth at 10 µM (HOP-92): 50%; Ki (Carbonic anhydrase 9): 31.7 nM; inhibition of growth at 10 µM (NCI-H23): 87%; inhibition of growth at 10 µM (HCT-15): 13%; inhibition of growth at 10 µM (HOP-62): 90%; inhibition of growth at 10 µM (OVCAR-5): 18%; inhibition of growth at 10 µM (U-251): 81%; inhibition of growth at 10 µM (T47D): 85%; inhibition of growth at 10 µM (SK-MEL-2): 81%; inhibition of growth at 10 µM (LOX IMVI): 120%; inhibition of growth at 10 µM (SN12C): 72%; inhibition of growth at 10 µM (A498): 81%; inhibition of growth at 10 µM (UO-31): 18%; inhibition of growth at 10 µM (Malme-3M): 63%; inhibition of growth at 10 µM (MOLT-4): 88%
NS(=O)(=O)c1ccc(Nc2nc(N/N=C/c3ccc(Cl)cc3)nc(Nc3ccccc3)n2)cc1	< 10%	13%	65%	32%	37%	26%	111%	45%	33%	< 10%	27%	48%	35%	59%	23%	46%	30%	16%	20%	61%	inhibition of growth at 10 µM (K562): 40%; inhibition of growth at 10 µM (OVCAR-3): 29%; inhibition of growth at 10 µM (SF-268): 26%; inhibition of growth at 10 µM (SNB-19): 18%; inhibition of growth at 10 µM (KM12): 36%; inhibition of growth at 10 µM (HOP-92): < 10%; Ki (Carbonic anhydrase 9): 22.6 nM; inhibition of growth at 10 µM (NCI-H23): 12%; inhibition of growth at 10 µM (HCT-15): 23%; inhibition of growth at 10 µM (HOP-62): 16%; inhibition of growth at 10 µM (OVCAR-5): 16%; inhibition of growth at 10 µM (U-251): 45%; inhibition of growth at 10 µM (T47D): 55%; inhibition of growth at 10 µM (SK-MEL-2): 18%; inhibition of growth at 10 µM (LOX IMVI): 39%; inhibition of growth at 10 µM (SN12C): 18%; inhibition of growth at 10 µM (A498): 23%; inhibition of growth at 10 µM (UO-31): 17%; inhibition of growth at 10 µM (Malme-3M): 11%; inhibition of growth at 10 µM (MOLT-4): 98%
